Read-outs that look alike come from different tables or passages of the source. {C11P} = undecylphosphate group; {Acr} = acridine group
Legend:
HSV-1 virus (strain L2) = format: cell-based, Herpes Simplex Virus 1; conditions: Vero cells, 24 hours
HSV-1 = format: cell-based, Herpes Simplex Virus 1; conditions: BHK cells, oligonucleotide 3.0 μM
HSV-1 (strain CI) = format: in vivo, mice

In the case of “Free Anti-Influenza: AGCAAAAGCAGG, equivalently modified control (5' {C11P}, 3' {Acr}, sugars by position and backbone not given here)”, the “HSV-1 Infectious Titre (CPE50/ml) (n = 7)” value (shortened to “HSV-1 Infectious Titre”) (HSV-1 virus (strain L2); oligo conc. 0.2 μM) is reported as 1.1 (±0.4) × 10^6 CPE50/ml, the “HSV-1 Infectious Titre” value (HSV-1 virus (strain L2); oligo conc. 1.0 μM) is reported as 0.9 (±0.2) × 10^6 CPE50/ml and the “HSV-1 Infectious Titre” value (HSV-1 virus (strain L2); oligo conc. 5.0 μM) is reported as 0.6 (±0.3) × 10^6 CPE50/ml. The “HSV-1 Infectious Titre” value (HSV-1) was 9 (±2) × 10^3 CPE50/ml, the “Animals Survived/No. of Animals in group, Exp. 1” value (HSV-1 (strain CI); mouse, in vivo, iv) was 0/9 and the “Animals Survived/No. of Animals in group, Exp. 2” value (HSV-1 (strain CI); mouse, in vivo, iv) was 1/10. For the same substance, the “Animals Survived/No. of Animals in group, Exp. 3” value (HSV-1 (strain CI); mouse, in vivo, iv) was 0/10 and the “% Survival” value (HSV-1 (strain CI); over Exp. 1-3) was 7.0%.

Reference: patent US7256180B2 (priority 2000, dated 2007)
